Earlier results, collected in patent publication US20210268011A1, “AMPK ACTIVATING AGENT” (ORYZA OIL & FAT CHEMICAL CO., LTD., priority 2018, published 2021).

Test system: AMPK
Details: recent research, Non-patent Document 4; cited from earlier work

For CN(C)C(=N)N=C(N)N [metformin], the AMPK activation is listed as “activated”.
